According to patent US20110052551A1, “CARDIAC MYOCYTE MORPHOGENIC COMPOSITIONS AND METHODS OF USE THEREFOR” (priority 2008, published 2011):
“Also recorded” adds a separate entry of the source.

Assays:
Format in all cases: cell-based, mice
unfractionated BMMNCs [1] = assay: qRT-PCR of Wnt11-induced cardiac gene expression with PKC and JNK inhibitors; conditions: 3 days in Wnt11-CM, BIM 1 μM, SP600125 10 μM
Description: Assessment of mRNA expression by quantitative real-time RT-PCR (qRT-PCR). All qRT-PCR reagents and primers were purchased from Qiagen Inc. (Valencia, Calif., United States of America). Prior to mRNA extraction, cell number was determined and calculated by Trypan blue exclusion. cDNA was generated from freshly isolated (designated as baseline) and cultured unfractionated BMMNCs at days 0, 3, 7, and 21 (see FIG. 9A) using QUANTISCRIPT REVERSE TRANSCRIPTASE™ (Qiagen Inc., Valencia, Calif., United States of America) contained in RT master mix of Cell to cDNA kits according to manufacturer's protocol. […]
To avoid amplification of contaminating DNA, all validated qRT-PCR primers were designed to cross […] sequences within the cDNA to be amplified. Quantitative qRT-PCR analysis was performed in an ABI Prism 7900H sequence detection system (Applied Biosystems, Foster City, Calif.) using QUANTITECT™ SYBR® Green Real Time PCR kits. Each 50 μl qRT-PCR reaction contained 2 μl (approximately 50 ng) of cDNA, 5 μl of 1× primer mix (containing approximately 500 nM sense and anti-sense primers) and 25 μl of 2× QUANTITECT™ SYBR® Green master mix. […]
The PCR product level is calculated from the threshold cycle (Ct). That is, the amplification cycle number at which exponential PCR-generated gene-specific fluorescence is first detected (above a fixed threshold level). […]

[2] = tested on: JNK phosphorylation in BMMNCs; assay: Western immunoblotting of Wnt11-induced JNK phosphorylation; conditions: 1 μM, 3 hours in Wnt11-CM
Description: Assessment of Wnt signaling. To investigate non-canonical signaling pathways, freshly isolated unfractionated BMMNCs were cultured in Wnt11-CM or in empty vector (control) medium in the presence or absence of 1 μM of the PKC inhibitor bisindolylmaleimide I (BIM, Sigma) for 3 hours followed by harvest and assessment of JNK phosphorylation by Western immunoblotting (see below and FIG. 9B). The expression of cardiac-specific gene expression in unfractionated BMMNCs was assessed by qRT-PCR following culture for 3 days in Wnt11-CM and empty vector (control) medium with and without PKC (BIM; 1 μM) and JNK (SP600125; 10 μM; Sigma) inhibitors (see FIG. 9B). Expression of Wnt3a and β-catenin were measured by qRT-PCR to investigate the effect of control, Wnt3a medium, and Wnt11-CM on canonical signaling.
(§1) Western immunoblotting and quantitative ELISA. […] Gel transfer efficiency was recorded carefully by making photocopies of membranes dyed with reversible Ponceau staining; gel retention was determined by Coomassie blue staining. […] Immunoreactive bands were visualized with horseradish peroxidase-conjugated anti-goat and anti-rabbit IgG (Santa Cruz Biotechnology) using an ECL detection kit (New England Nuclear, Billerica, Mass., United States of America), quantified by densitometry, and normalized GAPDH. […]

unfractionated BMMNCs [3] = assay: cTnI ELISA in cultured BMMNCs; conditions: for effect on Wnt11-induced expression of cTnI: 21 days of culture in Wnt11-CM
Description: Assessment of cardiac differentiation. For quantitative assessment of cardiomyocytic differentiation, an average of 2400 cells/plate were counted. Multiple fields from all 4 quarters of the plate were systematically evaluated. The number of cells expressing cardiac-specific intracellular contractile proteins in each field was counted; the total number of cells was calculated based on nuclear staining with DAPI. In addition, cells were concomitantly stained with markers specific for various non-cardiac lineages (skeletal muscle [myogenin]; neural [nestin, GFAP]; myeloid [CD11b, Gr-1]; and others; Zuba-Surma et al., 2006). Cells were counted as positive when they were positive for cardiac-specific contractile proteins and negative for all of these markers. Thus, a rigorous method was employed to assess cardiac differentiation in vitro. The percentage of cells differentiating into cardiomyocytes was calculated as the number of cells positive for proteins divided by the total number of nuclei in the field. These experiments were performed in triplicate. As a confirmatory measure, the expression of cardiac-specific troponin I (cTnI) was determined by ELISA as described hereinbelow following culture in Wnt11-CM with and without the Wnt inhibitor Dickkopf-1 (Dkk-1; see FIG. 9C).
as §1, with “ELISA. Western analysis was performed as described in Guo et al., 1998; Brandon et al., 2000; Li et al., 2003; and Li et al., 2006.” for “ELISA.”, “GAPDH. In all samples, the content of target protein was expressed as a percentage of the controls (untreated), normalized to GAPDH.” for “GAPDH.”

Molecule	Wnt11-induced cardiac gene expression (unfractionated BMMNCs [1])	Wnt11-induced cardiac gene expression (unfractionated BMMNCs [1]; listed as bisindolylmaleimide I)	Wnt11-induced JNK phosphorylation [2]	effect on Wnt11-induced expression of cTnI (unfractionated BMMNCs [3])	effect on Wnt11-induced expression of cTnI (unfractionated BMMNCs [3]; listed as Dickkopf-1)	effect on cTnI expression by itself (unfractionated BMMNCs [3]; 21 days of culture, without Wnt11-CM)
CN(C)CCCn1cc(C2=C(c3c[nH]c4ccccc34)C(=O)NC2=O)c2ccccc21 [BIM, bisindolylmaleimide I]	abolished; also recorded: no expression	completely abolished	completely blocked			
Dkk-1: soluble inhibitor of canonical signaling that blocks Wnt-signaling at the cell surface (protein, UniProt O94907 32-266, looked up) Dickkopf-related protein 1: TLNSVLNSNAIKNLPPPLGGAAGHPGSAVSAAPGILYPGGNKYQTIDNYQPYPCAEDEECGTDEYCASPTRGGDAGVQICLACRKRRKRCMRHAMCCPGNYCKNGICVSSDQNHFRGEIEETITESFGNDHSTLDGYSRRTTLSSKMYHTKGQEGSVCLRSSDCASGLCCARHFWSKICKPVLKEGQVCTKHRRKGSHGLEIFQRCYCGEGLSCRIQKDHHQASNSSRLHTCQRH				reduced	attenuated	little effect
